The record followed here is US9845321B2, “1,3-dihydro-2H-benzimidazol-2-one derivatives substituted with heterocycles as respiratory syncytial virus antiviral agents” (JANSSEN SCIENCES IRELAND UC, priority 2012, dated 2017).

For one data set, the system named is rgRSV224 virus. Nature of the data set: Antiviral activity: rgRSV224 (GFP-expressing RSV) replication in HeLa cells, GFP expression measured three days post-virus exposure. The class given is cell-based. As to conditions: human respiratory syncytial virus, 72 h, read-out: WT activity pEC50 (converted). The protocol: (§1) Black 96-well clear-bottom microtiter plates (Corning, Amsterdam, The Netherlands) were filled in duplicate using a customized robot system with serial 4-fold dilutions of compound in a final volume of 50 μl culture medium [RPMI medium without phenol red, 10% FBS, 0.04% gentamycin (50 mg/ml) and 0.5% DMSO]. Then, 100 μl of a HeLa cell suspension (5×10^4 cells/ml) in culture medium was added to each well followed by the addition of 50 μl rgRSV224 (MOI=0.02) virus in culture medium using a multidrop dispenser (Thermo Scientific, Erembodegem, Belgium). rgRSV224 virus is an engineered virus that includes an additional GFP gene (Hallak et al, 2000) and was in-licensed from the NIH (Bethesda, Md., USA). Medium, virus- and mock-infected controls were included in each test. Cells were incubated at 37° C. in a 5% CO2 atmosphere. Three days post-virus exposure, viral replication was quantified by measuring GFP expression in the cells by a MSM laser microscope (Tibotec, Beerse, Belgium). The EC50 was defined as the 50% inhibitory concentration for GFP expression. In parallel, compounds were incubated for three days in a set of white 96-well microtitier plates (Corning) and the cytotoxicity of compounds in HeLa cells was determined by measuring the ATP content of the cells using the ATPlite kit (PerkinElmer, Zaventem, Belgium) according to the manufacturer's instructions. The CC50 was defined as the 50% concentration for cytotoxicity.

A further data set is described as follows: in vitro. The class given is cell-based. The following applies: human. The protocol: as §1

For `N#CCCCn1c(Cn2c(=O)n(-c3ncco3)c3ccncc32)cc2cc(Cl)ccc21` [Compound P37, 4-(5-chloro-2-((1-(oxazol-2-yl)-2-oxo-1H-imidazo[4,5-c]pyridin-3(2H)-yl)methyl)-1H-indol-1-yl)butanenitrile], the melting point is 234 °C. Besides, in the data set with rgRSV224 virus, the EC50 is 1.58 nM. In the data set “in vitro”, the half-maximal cytotoxic concentration (CC50) at 3 days was greater than 100000 nM.
For `Cn1ccc(-n2c(=O)n(Cc3cc4cc(Cl)ccc4n3CCCCF)c3cnccc32)n1` [Compound P38, 3-((5-chloro-1-(4-fluorobutyl)-1H-indol-2-yl)methyl)-1-(1-methyl-1H-pyrazol-3-yl)-1H-imidazo[4,5-c]pyridin-2(3H)-one] the same measures were 169.3 °C, 1.58 nM and greater than 100000 nM.
For `N#CCCCn1c(Cn2c(=O)n(-c3ccc(Cl)cc3)c3ccncc32)cc2cc(Cl)ccc21` [Compound P39, 4-(5-chloro-2-((1-(4-chlorophenyl)-2-oxo-1H-imidazo[4,5-c]pyridin-3(2H)-yl)methyl)-1H-indol-1-yl)butanenitrile] the same measures were 210.8 °C, 3.98 nM and 25100 nM.

By CC50 is commonly meant the concentration at which the toxic effect on the cells reaches its halfway point. The term melting point denotes the temperature of the solid-liquid transition.
